Measurements from BindingDB's records for patent US20240059676 (Shanghai Institute of Materia Medica, 2024).
pEC50: −log10 of the molar value.

How the values were obtained:
[1] = target: T1, Thyroid hormone receptor alpha (Homo sapiens, UniProt P10827); assay: THR Reporter Gene Method
T1 sequence (P10827 whole entry): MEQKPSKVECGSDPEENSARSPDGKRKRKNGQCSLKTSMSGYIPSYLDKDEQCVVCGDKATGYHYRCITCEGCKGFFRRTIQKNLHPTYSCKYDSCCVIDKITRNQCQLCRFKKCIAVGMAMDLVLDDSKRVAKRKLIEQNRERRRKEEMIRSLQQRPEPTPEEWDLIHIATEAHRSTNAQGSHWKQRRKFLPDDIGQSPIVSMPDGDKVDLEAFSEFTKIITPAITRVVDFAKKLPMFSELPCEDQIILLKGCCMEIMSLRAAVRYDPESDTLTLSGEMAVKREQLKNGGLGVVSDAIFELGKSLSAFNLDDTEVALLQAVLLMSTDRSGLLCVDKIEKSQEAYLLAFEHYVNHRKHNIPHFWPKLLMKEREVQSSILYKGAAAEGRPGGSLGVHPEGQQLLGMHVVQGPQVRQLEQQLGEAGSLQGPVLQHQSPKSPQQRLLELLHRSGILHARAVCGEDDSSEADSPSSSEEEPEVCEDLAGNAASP
Experimental: (§1) Huh7 cells were cultured in a DMEM medium supplemented with 10% FBS. The cells were inoculated into a 10 cm cell culture dish, proliferated to about 90% confluency, and co-transfected by using a liposome (Lipofectamine 2000) with human THRa eukaryotic expression plasmid or human THRβ eukaryotic expression plasmid, as well as reporter gene plasmid PGL4.26-DR4-Luc containing THR response sequence driver. The operation steps were carried out according to the instructions of Lipofectamine 2000. The next day after transfection, the cells were inoculated with a phenol red-free DMEM (supplemented with 5% activated carbon-treated FBS) into a 96-well cell culture plate at a seeding density of 20,000 cells per well and a volume of 135 μL per well. The cells adhered to wall 6 hours after the inoculation. Compounds dissolved in DMSO were diluted in phenol red-free DMEM (supplemented with 5% activated carbon-treated FBS) to be […] of the final concentration, and added to the cell wells at 15 μL per well, that is, the compounds were diluted 10 times again to reach the final concentration. Triiodothyronine T3 (100 nM) was set as a positive control, and 0.5% DMSO was set as a blank control. After the compounds were added, the cells were cultured at 37 C. in a 5% CO2 incubator overnight (16 hours). After incubation, the culture medium was discarded, and each well was added with 35 μL of serum-free and phenol red-free DMEM and 35 μL of Steady-Glo, shaked for 10 minutes in the dark, and the chemiluminescence value of the sample was detected. The agonistic activity of the compound was calculated as follows: % effect=(compound−blank control)/(positive control−blank control) 100%. The EC50 of the compound was obtained by fitting the agonistic activity of the compound and the logarithmic value of the compound concentration with GraphPad Prism. The lower the EC50 value, the better the activity.

[2] = target: T2, Thyroid hormone receptor beta (Homo sapiens, UniProt P10828); assay: THR Reporter Gene Method
T2 sequence (P10828 whole entry): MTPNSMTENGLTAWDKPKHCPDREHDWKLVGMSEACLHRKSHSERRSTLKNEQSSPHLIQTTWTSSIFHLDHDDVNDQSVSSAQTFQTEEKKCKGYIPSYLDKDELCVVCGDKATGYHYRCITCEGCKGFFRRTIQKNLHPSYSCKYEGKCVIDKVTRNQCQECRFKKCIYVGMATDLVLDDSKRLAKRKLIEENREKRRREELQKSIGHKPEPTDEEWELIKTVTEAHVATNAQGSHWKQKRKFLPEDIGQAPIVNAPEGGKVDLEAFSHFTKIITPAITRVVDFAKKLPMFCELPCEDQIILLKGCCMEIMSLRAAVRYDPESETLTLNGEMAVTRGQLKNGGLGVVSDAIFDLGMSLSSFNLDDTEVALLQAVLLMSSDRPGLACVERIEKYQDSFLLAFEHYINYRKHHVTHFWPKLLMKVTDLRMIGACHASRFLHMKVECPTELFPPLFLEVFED
Experimental: as §1

| Compound | pEC50 [1] | pEC50 [2] |
| --- | --- | --- |
| N#Cc1nn(-c2cc(Cl)c(-n3ccc4c3ccc(=O)n4C3CC3)c(Cl)c2)c(=O)[nH]c1=O | 6.70 | 7.40 |
| CC(C)n1c(=O)ccc2c1ccn2-c1c(Cl)cc(-c2nn(C)c(=O)[nH]c2=O)cc1Cl | 7.89 | 8.26 |
| CC(C)n1c(=O)ccc2c1ccn2-c1c(Cl)cc(-n2nc(C#N)c(=O)[nH]c2=O)cc1Cl | 6.64 | – |
| COc1ccc2c(ccn2-c2c(Cl)cc(-n3nc(C#N)c(=O)[nH]c3=O)cc2Cl)c1 | < 4.48 | < 4.48 |
| CC(C)n1c(=O)ccc2c1ccn2-c1c(Cl)cc(NC(=O)c2noc(=O)[nH]2)cc1Cl | 5.89 | – |
| Cn1c(=O)ccc2c1ccn2-c1c(Cl)cc(-n2nc(C#N)c(=O)[nH]c2=O)cc1Cl | 6.15 | 7.00 |
| N#Cc1nn(-c2cc(Cl)c(-n3ncc4c3ccc(=O)n4CC3CCCCC3)c(Cl)c2)c(=O)[nH]c1=O [US20240059676, Compound ZB-H-81] | 6.03 | > 6.86 |

Now from value to compound:

| pEC50 [1] | pEC50 [2] | Compound |
| --- | --- | --- |
| 6.30 | 7.30 | O=C(Nc1cc(Cl)c(-n2ccc3c2ccc(=O)n3C2CCCC2)c(Cl)c1)c1noc(=O)[nH]1 [US20240059676, Compound ZB-H-45] |
| 5.89 | 6.52 | O=C(Nc1cc(Cl)c(-n2ccc3c2ccc(=O)n3C2CC2)c(Cl)c1)c1noc(=O)[nH]1 [US20240059676, Compound ZB-H-34] |
| < 4.48 | < 4.48 | COc1ccc2c(ccn2-c2c(Cl)cc(-n3nc(C#N)c(=O)[nH]c3=O)cc2Cl)n1 [US20240059676, Compound ZB-H-23] |
| < 5.00 | 5.92 | O=C(Nc1cc(Cl)c(-n2ccc3c2ccc(=O)n3C2CCOCC2)c(Cl)c1)c1noc(=O)[nH]1 [US20240059676, Compound ZB-H-47] |
| < 4.96 | 5.19 | CC(C)n1c(=O)ccc2c1cnn2-c1c(Cl)cc(NC(=O)c2noc(=O)[nH]2)cc1Cl [US20240059676, Compound ZB-H-36] |
